In the NIST ThermoML archive (doi:10.1021/je900596d):

Conditions: Vibrating tube method

FC(F)=C(F)C(F)(F)F [hexafluoropropene]
Conditions	mass density [kg/m3]
348.12 K, 1780.6 kPa, Fluid (supercritical or subcritical phases)	126.81
348.12 K, 1804.3 kPa, Fluid (supercritical or subcritical phases)	129.36
348.12 K, 1829.7 kPa, Fluid (supercritical or subcritical phases)	132.19
348.12 K, 1851.6 kPa, Fluid (supercritical or subcritical phases)	134.57
348.12 K, 1872.9 kPa, Fluid (supercritical or subcritical phases)	137.09
348.12 K, 1894.9 kPa, Fluid (supercritical or subcritical phases)	139.69
348.12 K, 1917.6 kPa, Fluid (supercritical or subcritical phases)	142.36
348.12 K, 1939.9 kPa, Fluid (supercritical or subcritical phases)	144.88
348.12 K, 1967.9 kPa, Fluid (supercritical or subcritical phases)	148.35
348.12 K, 1992.7 kPa, Fluid (supercritical or subcritical phases)	151.5
348.12 K, 2016.1 kPa, Fluid (supercritical or subcritical phases)	154.47
348.12 K, 2044.1 kPa, Fluid (supercritical or subcritical phases)	158.31
348.12 K, 2068.5 kPa, Fluid (supercritical or subcritical phases)	161.51
348.12 K, 2096.5 kPa, Fluid (supercritical or subcritical phases)	165.49
348.12 K, 2143.5 kPa, Fluid (supercritical or subcritical phases)	172.38
348.12 K, 2192.1 kPa, Fluid (supercritical or subcritical phases)	180.05
348.12 K, 2212.1 kPa, Fluid (supercritical or subcritical phases)	183.28
348.12 K, 2238.5 kPa, Fluid (supercritical or subcritical phases)	187.82
348.12 K, 2266 kPa, Fluid (supercritical or subcritical phases)	192.69
348.12 K, 2288.1 kPa, Fluid (supercritical or subcritical phases)	196.82
348.12 K, 2310.2 kPa, Fluid (supercritical or subcritical phases)	201.01
348.12 K, 2332.6 kPa, Fluid (supercritical or subcritical phases)	205.6
348.12 K, 2354 kPa, Fluid (supercritical or subcritical phases)	210.08
348.12 K, 2375.5 kPa, Fluid (supercritical or subcritical phases)	214.74
348.12 K, 2397.3 kPa, Fluid (supercritical or subcritical phases)	219.85
348.12 K, 2419.9 kPa, Fluid (supercritical or subcritical phases)	225.48
348.12 K, 2442.3 kPa, Fluid (supercritical or subcritical phases)	231.34
348.12 K, 2470.6 kPa, Fluid (supercritical or subcritical phases)	239.59
348.12 K, 2472.8 kPa, Fluid (supercritical or subcritical phases)	240.22
348.12 K, 2475.3 kPa, Fluid (supercritical or subcritical phases)	241.04
348.12 K, 2478 kPa, Fluid (supercritical or subcritical phases)	241.76
348.12 K, 2479.4 kPa, Fluid (supercritical or subcritical phases)	242.23
348.12 K, 2481.5 kPa, Fluid (supercritical or subcritical phases)	242.88
348.12 K, 2484.1 kPa, Fluid (supercritical or subcritical phases)	243.75
348.12 K, 2485.5 kPa, Fluid (supercritical or subcritical phases)	244.17
348.12 K, 2487.8 kPa, Fluid (supercritical or subcritical phases)	244.94
348.12 K, 2490.1 kPa, Fluid (supercritical or subcritical phases)	245.8
348.12 K, 2493.8 kPa, Fluid (supercritical or subcritical phases)	247.53
348.12 K, 2495.7 kPa, Fluid (supercritical or subcritical phases)	248.38
348.12 K, 2497.4 kPa, Fluid (supercritical or subcritical phases)	248.67
348.12 K, 2498.8 kPa, Fluid (supercritical or subcritical phases)	250.42
348.12 K, 2499.7 kPa, Fluid (supercritical or subcritical phases)	251.97
348.12 K, 2500.9 kPa, Fluid (supercritical or subcritical phases)	254.86
348.12 K, 2501.9 kPa, Fluid (supercritical or subcritical phases)	260.28
348.12 K, 2502.8 kPa, Fluid (supercritical or subcritical phases)	268.19
348.16 K, 2506.4 kPa, Liquid	959.6
348.16 K, 2507.7 kPa, Liquid	959.78
348.16 K, 2509 kPa, Liquid	959.97
348.16 K, 2510.7 kPa, Liquid	960.12
348.16 K, 2511.1 kPa, Liquid	960.28
348.16 K, 2513.5 kPa, Liquid	960.38
348.16 K, 2516.3 kPa, Liquid	960.72
348.16 K, 2517 kPa, Liquid	960.83
348.16 K, 2518.6 kPa, Liquid	961.02
348.16 K, 2520.1 kPa, Liquid	961.1
348.16 K, 2520.8 kPa, Liquid	961.16
348.16 K, 2522.6 kPa, Liquid	961.35
348.16 K, 2523.5 kPa, Liquid	961.75
348.16 K, 2525.5 kPa, Liquid	961.71
348.16 K, 2526.1 kPa, Liquid	961.8
348.16 K, 2530 kPa, Liquid	962.41
348.16 K, 2532.2 kPa, Liquid	962.81
348.16 K, 2535.5 kPa, Liquid	963.11
348.16 K, 2538.4 kPa, Liquid	963.1
348.16 K, 2542.3 kPa, Liquid	963.6
348.16 K, 2544.8 kPa, Liquid	963.72
